For assay [1], the system named is mononuclear cells isolated from peripheral blood. In words: LPS-induced IL-1β, IL-6 and GM-CSF release in mononuclear cells isolated from healthy and asthmatic patients. The following applies: single agent. The format is cell-based, human. The method, then: Mononuclear cells were isolated from peripheral blood of healthy volunteers, and asthmatic patients. Briefly, PBMC were isolated from peripheral venous blood by standard laboratory procedures. Peripheral venous blood was mixed with dextran 500 at 3% (in 0.9% saline) in a proportion of 2:1. This mixture was incubated at room temperature for 30 min until sedimentation of erythrocytes. The upper phase was carefully collected and layered on Ficoll-Paque Histopaque 1077 density gradient in a proportion of 3:1. (PBMC) layer was isolated and quantified.
For the single agent study, isolated mononuclear cells were incubated with Compound A, or vehicle for 30 minutes before incubation with or without LPS for 6 hours in standard cell culture conditions (37° C. and 5% CO2). For the combination experiments, the same procedure was followed except that cells were incubated with Compound A (1 μM) in combination with fluticasone (0.1 nM). Supernatants were collected to measure IL-1β, IL-6, and GM-CSF. Data was analysed using Graphpad Prism.

Another assay deals with U937 cells. In words: H2O2 induced corticosteroid insensitivity in U937 cells (TNF-α induced IL-8, ELISA). It counts as cell-based. The following applies: H2O2 treated U937 macrophages; addition of 1 μM Compound A; FIG. 1B. As for the experimental part: U937 cells were maintained in RPMI-1640 with 15 mM glutamine. 6×10^6 cells were taken in a T-25 flask with 12 ml of fresh medium and treated with 1 μM of Compound A and incubated at 37° C. and 5% CO2 for 30 min.
H2O2 was added at a final concentration of 200 μM to the above cells and incubated for 2 h.
Cells were pelleted and resuspended in serum free media and seeded on to a 96-well plate at 0.15×10^6 cells per well in 100 μl.
50 μl of 3× dexamethasone at desired concentrations was added and incubated for 45 min
50 μl of 4× concentration of TNF-α was added such that the final concentration was 10 ng/ml, to induce IL-8 and incubated for 18 h.
Supernatant was collected and IL-8 was estimated by ELISA.
IL-8 strips were plated with fresh or thawed supernatants and incubated at room temperature for 2 h or overnight at 4° C.
Contents were discarded and strips were washed with 200 μl of wash buffer per well for 15 s for a total of 5 times.
Strips were blotted dry and 100 μl per well of 1× detection antibody was added and incubated at room temperature for 1 h.
Strips were blotted dry and 100 μl per well of 1× Avidin-HRP antibody was added and incubated at room temperature for 30 min.
Contents were discarded and the strips were washed with 200 μl per well of wash buffer for 15 s for a total of 5 times. […]
Absorbance was read on a plate reader at A450 nm and A570 nm.

Where [2] appears, read: asthmatic patients, LPS stimulus 6 hours.

The structures appear in SMILES notation.

On to `Cc1ccccc1C(=O)Nc1ccc(-n2nc(C(F)(F)F)cc2C2CC2)nc1` [Compound A, N-{6-[5-cyclopropyl-3-(trifluoromethyl)-1H-pyrazol-1-yl]pyridin-3-yl}-2-methyl benzamide], for which, in assay [1] (setting [2]), the “percentage maximum effect (% Emax), GM-CSF release” value was found to be 80±16.4%; the “percentage maximum effect (% Emax), IL1β release” value is recorded as 68.9±23.7%; the “percentage maximum effect (% Emax), IL6 release” value worked out at 52.5±30.3%. Also, in assay [1] (healthy donors, LPS stimulus), the “% Emax for IL1β compared with asthmatic cells” value is “higher % Emax”. The “reduction in IC50 of dexamethasone for IL-8 release” value in the assay with U937 cells is recorded as 3 fold.

Source of the values: patent US20220040162A1, “COMPOSITIONS COMPRISING A CRAC INHIBITOR AND A CORTICOSTEROID AND METHODS OF USE THEREOF” (Rhizen Pharmaceuticals AG, priority 2018, published 2022).
